Values of other authors, collected in patent US20060106545A1, “Methods of clustering proteins” (Jubilant Biosys Ltd., priority 2004, published 2006).

Tests used:
CK2 (Casein kinase 2) = CK2 (Casein kinase 2) (Homo sapiens, UniProt P68400)
PKB (Protein kinase B) = PKB (Protein kinase B) (Homo sapiens, UniProt P31749)
[1] = system: MKK (Mitogen activated protein kinase kinase)
[2] = biological target: MAPK2 (Mitogen-activated protein kinase 2) (Homo sapiens, UniProt P28482)
[3] = biological target: T1, SAPK3 (Stress-activated protein kinase 3) (Homo sapiens, UniProt P53778)
T1 sequence (P53778 1-367): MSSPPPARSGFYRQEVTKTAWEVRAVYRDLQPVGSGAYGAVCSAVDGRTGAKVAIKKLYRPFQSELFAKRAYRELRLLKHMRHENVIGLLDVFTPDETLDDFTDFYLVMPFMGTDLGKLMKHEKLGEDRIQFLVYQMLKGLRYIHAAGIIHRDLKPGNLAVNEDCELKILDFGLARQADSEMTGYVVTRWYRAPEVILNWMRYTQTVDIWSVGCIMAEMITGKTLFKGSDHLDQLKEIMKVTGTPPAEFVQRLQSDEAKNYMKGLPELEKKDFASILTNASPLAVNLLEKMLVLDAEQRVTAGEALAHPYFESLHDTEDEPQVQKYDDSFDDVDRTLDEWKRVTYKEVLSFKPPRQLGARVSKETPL

SAPK2 = details: kinase SAPK2

Sequence of MAPK2 (Mitogen-activated protein kinase 2) (P28482 whole entry): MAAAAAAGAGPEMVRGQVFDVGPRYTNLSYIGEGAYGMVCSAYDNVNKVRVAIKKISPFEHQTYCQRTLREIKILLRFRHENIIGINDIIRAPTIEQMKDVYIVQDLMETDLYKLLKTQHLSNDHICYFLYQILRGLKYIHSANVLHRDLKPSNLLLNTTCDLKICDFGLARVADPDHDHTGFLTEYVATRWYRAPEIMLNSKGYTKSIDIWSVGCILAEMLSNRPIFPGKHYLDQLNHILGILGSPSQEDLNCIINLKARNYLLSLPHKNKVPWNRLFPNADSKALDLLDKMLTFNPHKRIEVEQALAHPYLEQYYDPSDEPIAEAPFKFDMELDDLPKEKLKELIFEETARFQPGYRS
Sequence of CK2 (Casein kinase 2) (P68400 whole entry): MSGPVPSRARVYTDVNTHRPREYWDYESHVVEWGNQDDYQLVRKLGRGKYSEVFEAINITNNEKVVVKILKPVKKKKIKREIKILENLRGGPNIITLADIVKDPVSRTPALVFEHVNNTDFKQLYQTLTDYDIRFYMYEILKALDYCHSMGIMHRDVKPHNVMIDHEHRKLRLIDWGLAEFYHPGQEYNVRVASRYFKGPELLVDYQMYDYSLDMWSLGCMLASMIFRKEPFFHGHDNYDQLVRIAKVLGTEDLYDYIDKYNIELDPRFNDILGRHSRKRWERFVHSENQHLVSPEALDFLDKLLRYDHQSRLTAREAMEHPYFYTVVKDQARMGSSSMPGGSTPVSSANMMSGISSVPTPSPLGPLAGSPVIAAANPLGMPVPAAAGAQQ
Sequence of PKB (Protein kinase B) (P31749 whole entry): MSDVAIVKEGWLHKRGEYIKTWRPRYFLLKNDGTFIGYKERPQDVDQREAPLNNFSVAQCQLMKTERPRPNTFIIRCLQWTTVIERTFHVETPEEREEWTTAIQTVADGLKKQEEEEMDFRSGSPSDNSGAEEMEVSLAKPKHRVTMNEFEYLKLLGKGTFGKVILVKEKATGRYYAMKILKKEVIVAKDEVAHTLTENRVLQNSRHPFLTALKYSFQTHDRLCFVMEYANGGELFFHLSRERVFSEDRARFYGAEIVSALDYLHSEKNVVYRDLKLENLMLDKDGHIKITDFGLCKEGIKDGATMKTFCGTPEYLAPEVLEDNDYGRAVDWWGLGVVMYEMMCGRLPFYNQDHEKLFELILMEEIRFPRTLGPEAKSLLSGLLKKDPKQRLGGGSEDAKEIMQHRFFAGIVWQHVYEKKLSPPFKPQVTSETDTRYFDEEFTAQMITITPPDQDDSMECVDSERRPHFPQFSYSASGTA

percentage of expression, Bain et al., (2003) [3]	Structure (SMILES)	% of Expression Bain et al., (2002) (CK2 (Casein kinase 2))	% of Expression Bain et al., (2002) (PKB (Protein kinase B))	% of Expression Bain et al. [1]	% of Expression Bain et al., (2002) [2]	% of Expression Bain et al. (SAPK2)
	O=C1Cc2c([nH]c3ccc(Br)cc23)-c2ccccc2N1 [Kenpaullone]	>80%	40-60%	>80%	60-80%	
more than 80%	CC(C)[C@H](CO)Nc1nc(Nc2cccc(Cl)c2)c2ncn(C(C)C)c2n1 [Purvalanol]					>80%
